The term EC50 denotes the concentration needed to bring the measured effect to its halfway point. A low value points to greater potency.

T1 sequence (Q05941 23-502): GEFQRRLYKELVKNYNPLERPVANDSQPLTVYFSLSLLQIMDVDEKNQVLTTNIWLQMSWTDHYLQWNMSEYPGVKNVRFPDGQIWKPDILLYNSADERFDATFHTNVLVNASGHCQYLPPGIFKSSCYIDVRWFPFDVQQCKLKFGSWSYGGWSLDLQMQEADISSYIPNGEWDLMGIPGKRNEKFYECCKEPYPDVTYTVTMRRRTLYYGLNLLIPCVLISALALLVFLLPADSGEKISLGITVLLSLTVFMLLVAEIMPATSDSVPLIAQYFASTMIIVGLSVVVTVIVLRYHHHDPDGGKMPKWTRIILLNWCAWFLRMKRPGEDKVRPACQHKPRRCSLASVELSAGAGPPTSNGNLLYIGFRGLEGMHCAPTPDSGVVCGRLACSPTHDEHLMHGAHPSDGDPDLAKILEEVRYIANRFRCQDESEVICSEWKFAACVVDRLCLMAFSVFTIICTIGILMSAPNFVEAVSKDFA

One assay concerns the target T1, α-7 nicotinic acetylcholine receptor channel expressed in HEK 293 cells (Rattus norvegicus, UniProt Q05941).
T1 construct: expressed in transfected cells
Put plainly: Ca2+-sensitive fluorescence-based FLIPR assay, α7 nicotinic ACh receptor channel function (agonist). It is filed as cell-based. Conditions: FLIPR α7 (EC50, nM), Table 1; HEK 293 cells, agonist Ca2+ flux. A digest of the protocol:
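Potency and efficacy derived from kinetic FLIPR Ca²⁺-flux fluorescence, recorded 3 min after compound addition in Hanks buffer following a 10 s baseline.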
A general note: Calcium assays in cells follow changes in intracellular calcium, usually with a dye or a luminescent sensor.
The compound `Brc1cnc(NC2=NC[C@@]3(CN4CCC3CC4)O2)nc1C1CC1` [Example 210] gave an EC50 of 9 nM. `Clc1cnc(NC2=NC[C@@]3(CN4CCC3CC4)O2)nc1` [Example 213] showed an EC50 of 9 nM.

`COCc1cc(NC2=NC[C@@]3(CN4CCC3CC4)O2)ncn1` [Example 218, (R)—N-(6-(methoxymethyl)pyrimidin-4-yl)-4H-1′-azaspiro[oxazole-5,3′-bicyclo[2.2.2]octan]-2-amine] registered an EC50 of 285 nM.

Still in this assay, the particulars now being: FLIPR α7 activity rating (EC50, nM), Table 1; HEK 293 cells, agonist Ca2+ flux.
`Brc1cnc(NC2=NC[C@@]3(CN4CCC3CC4)O2)nc1C1CC1` [Example 210] came in with an EC50 below 100 nM. On to `COc1ccc2c(NC3=NC[C@@]4(CN5CCC4CC5)O3)nn(C)c2c1` [Example 211], for which the concentration for a half-maximal effect (EC50) was in the range of 100 to 1000 nM. Compound `COc1ccc2c(c1)c(NC1=NC[C@@]3(CN4CCC3CC4)O1)nn2C` [Example 212] yielded an EC50 of 1000 to 100000 nM. Consider `Clc1cnc(NC2=NC[C@@]3(CN4CCC3CC4)O2)nc1` [Example 213], for which the EC50 was below 100 nM.

On to `Clc1ccc(NC2=NC[C@@]3(CN4CCC3CC4)O2)nc1` [Example 214], for which the EC50 was below 100 nM. As for `Clc1ccnc(NC2=NC[C@@]3(CN4CCC3CC4)O2)c1` [Example 215], the EC50 was below 100 nM. Compound `CC(C)Oc1cnc(NC2=NC[C@@]3(CN4CCC3CC4)O2)cn1` [Example 216] had an EC50 of 1000 to 100000 nM. Take `CN1CCCC1c1ccc(NC2=NC[C@@]3(CN4CCC3CC4)O2)nc1` (stereo partly drawn) [Example 217]: the EC50 lay within 1000 to 100000 nM. Compound `COCc1cc(NC2=NC[C@@]3(CN4CCC3CC4)O2)ncn1` [Example 218, (R)—N-(6-(methoxymethyl)pyrimidin-4-yl)-4H-1′-azaspiro[oxazole-5,3′-bicyclo[2.2.2]octan]-2-amine] had an EC50 of 100 to 1000 nM. In the case of `c1nc(NC2=NC[C@@]3(CN4CCC3CC4)O2)ncc1OC1CCCC1` [Example 219, (R)—N-(5-(Cyclopentyloxy)pyrimidin-2-yl)-4H-1′-azaspiro[oxazole-5,3′-bicyclo[2.2.2]octan]-2-amine], the EC50 lay within 1000 to 100000 nM. On to `CC(C)c1cc2c(NC3=NC[C@@]4(CN5CCC4CC5)O3)ncnc2s1` [Example 223], for which the EC50 was 100 to 1000 nM. On the same count and under the same terms, the result for `CCc1cnc(NC2=NC[C@@]3(CN4CCC3CC4)O2)nc1` [Example 227] reads 100 to 1000 nM; that for `FC(F)(F)COc1cc(NC2=NC[C@@]3(CN4CCC3CC4)O2)ncn1` [Example 228, (R)—N-(6-(2,2,2-Trifluoroethoxy)pyrimidin-4-yl)-4H-1′-azaspiro[oxazole-5,3′-bicyclo[2.2.2]octan]-2-amine], below 100 nM. The compound `CC(C)c1nc(NC2=NC[C@@]3(CN4CCC3CC4)O2)ncc1Br` [Example 229, (R)—N-(5-Bromo-4-isopropylpyrimidin-2-yl)-4H-1′-azaspiro[oxazole-5,3′-bicyclo[2.2.2]octan]-2-amine] came in with an EC50 below 100 nM.

Compound `Brc1cnc(NC2=NC[C@@]3(CN4CCC3CC4)O2)nc1-c1cccnc1` [Example 230, (R)—N-(5-Bromo-4-(pyridin-3-yl)pyrimidin-2-yl)-4H-1′-azaspiro[oxazole-5,3′-bicyclo[2.2.2]octan]-2-amine] showed an EC50 below 100 nM. `c1nc(NC2=NC[C@@]3(CN4CCC3CC4)O2)cc(OC2CCCC2)n1` [Example 231, (R)—N-(6-(Cyclopentyloxy)pyrimidin-4-yl)-4H-1′-azaspiro[oxazole-5,3′-bicyclo[2.2.2]octan]-2-amine] came in with an EC50 of 100 to 1000 nM. The same measure, in the same setting: the result for `CC(C)Oc1cc(NC2=NC[C@@]3(CN4CCC3CC4)O2)ncn1` [Example 232, (R)—N-(6-Isopropoxypyrimidin-4-yl)-4H-1′-azaspiro[oxazole-5,3′-bicyclo[2.2.2]octan]-2-amine] reads 100 to 1000 nM; that for `c1cc(NC2=NC[C@@]3(CN4CCC3CC4)O2)ccn1` [Example 235, (R)—N-(Pyridin-4-yl)-4H-1′-azaspiro[oxazole-5,3′-bicyclo[2.2.2]octan]-2-amine], 1000 to 100000 nM; that for `c1ccc(COc2ccc3nc(NC4=NC[C@@]5(CN6CCC5CC6)O4)sc3n2)cc1` [Example 236, (R)—N-(5-(Benzyloxy)thiazolo[5,4-b]pyridin-2-yl)-4H-1′-azaspiro[oxazole-5,3′-bicyclo[2.2.2]octan]-2-amine], 1000 to 100000 nM. On the same count and under the same terms, the result for `O=c1ccc2nc(NC3=NC[C@@]4(CN5CCC4CC5)O3)sc2[nH]1` [Example 237, (R)-2-(4H-1′-azaspiro[oxazole-5,3′-bicyclo[2.2.2]octane]-2-ylamino)thiazolo[5,4-b]pyridin-5(4H)-one] reads below 100 nM. Still for that read-out and setting: the result for `c1ccc(Oc2cc(NC3=NC[C@@]4(CN5CCC4CC5)O3)ncn2)cc1` [Example 240, (R)—N-(6-Phenoxypyrimidin-4-yl)-4H-1′-azaspiro[oxazole-5,3′-bicyclo[2.2.2]octan]-2-amine] reads 100 to 1000 nM; that for `COc1ccc2ncc(NC3=NC[C@@]4(CN5CCC4CC5)O3)nc2c1` [Example 241, (R)—N-(7-methoxyquinoxalin-2-yl)-4H-1′-azaspiro[oxazole-5,3′-bicyclo[2.2.2]octan]-2-amine], 1000 to 100000 nM.

As for `Cc1ccc2nc(NC3=NC[C@@]4(CN5CCC4CC5)O3)cnc2c1` [Example 242, (R)—N-(6-Methylquinoxalin-2-yl)-4H-1′-azaspiro[oxazole-5,3′-bicyclo[2.2.2]octan]-2-amine], the EC50 lay in the range of 100 to 1000 nM. The compound `Cc1ccc2ncc(NC3=NC[C@@]4(CN5CCC4CC5)O3)nc2c1` [Example 243, (R)—N-(7-Methylquinoxalin-2-yl)-4H-1′-azaspiro[oxazole-5,3′-bicyclo[2.2.2]octan]-2-amine] showed an EC50 of 1000 to 100000 nM. On to `c1cncc(-c2cc(NC3=NC[C@@]4(CN5CCC4CC5)O3)ncn2)c1` [Example 244, (R)—N-(6-(Pyridin-3-yl)pyrimidin-4-yl)-4H-1′-azaspiro[oxazole-5,3′-bicyclo[2.2.2]octan]-2-amine], for which the EC50 was below 100 nM. Compound `COc1ncc(-c2cc(NC3=NC[C@@]4(CN5CCC4CC5)O3)ncn2)cn1` [Example 245, (R)—N-(2′-Methoxy-4,5′-bipyrimidin-6-yl)-4H-1′-azaspiro[oxazole-5,3′-bicyclo[2.2.2]octan]-2-amine] registered an EC50 below 100 nM. Consider `c1cc(-c2cc(NC3=NC[C@@]4(CN5CCC4CC5)O3)ncn2)ccn1` [Example 246, (R)—N-(6-(Pyridin-4-yl)pyrimidin-4-yl)-4H-1′-azaspiro[oxazole-5,3′-bicyclo[2.2.2]octan]-2-amine], for which the EC50 is below 100 nM. In the case of `Cc1nc(NC2=NC[C@@]3(CN4CCC3CC4)O2)ccc1C#N` [Example 247, (R)-6-(4H-1′-Azaspiro[oxazole-5,3′-bicyclo[2.2.2]octane]-2-ylamino)-2-methylnicotinonitrile], the EC50 was in the range of 100 to 1000 nM. `Cc1cc(NC2=NC[C@@]3(CN4CCC3CC4)O2)nc(C)c1C#N` [Example 248, (R)-6-(4H-1′-Azaspiro[oxazole-5,3′-bicyclo[2.2.2]octane]-2-ylamino)-2,4-dimethylnicotinonitrile] showed an EC50 of 100 to 1000 nM. Compound `c1ccc(-c2ccc(NC3=NC[C@@]4(CN5CCC4CC5)O3)nn2)cc1` [Example 249, (R)—N-(6-Phenylpyridazin-3-yl)-4H-1′-azaspiro[oxazole-5,3′-bicyclo[2.2.2]octan]-2-amine] yielded an EC50 of 1000 to 100000 nM. `Clc1ccc(NC2=NC[C@@]3(CN4CCC3CC4)O2)nc1Cl` [Example 251, (R)—N-(5,6-Dichloropyridin-2-yl)-4H-1′-azaspiro[oxazole-5,3′-bicyclo[2.2.2]octan]-2-amine] displayed an EC50 below 100 nM.

Compound `Clc1cnc(NC2=NC[C@@]3(CN4CCC3CC4)O2)cc1Cl` [Example 252, (R)—N-(4,5-Dichloropyridin-2-yl)-4H-1′-azaspiro[oxazole-5,3′-bicyclo[2.2.2]octan]-2-amine] returned an EC50 below 100 nM.

As to `Cc1cc(NC2=NC[C@@]3(CN4CCC3CC4)O2)ncc1Cl` [Example 253, (R)—N-(5-Chloro-4-methylpyridin-2-yl)-4H-1′-azaspiro[oxazole-5,3′-bicyclo[2.2.2]octan]-2-amine], the EC50 is below 100 nM. The same measure, in the same setting: the result for `Clc1ccc(NC2=NC[C@@]3(CN4CCC3CC4)O2)nn1` [Example 254, (R)—N-(6-Chloropyridazin-3-yl)-4H-1′-azaspiro[oxazole-5,3′-bicyclo[2.2.2]octan]-2-amine] reads 100 to 1000 nM; that for `Brc1ccc(NC2=NC[C@@]3(CN4CCC3CC4)O2)nn1` [Example 255, (R)—N-(6-Bromopyridazin-3-yl)-4H-1′-azaspiro[oxazole-5,3′-bicyclo[2.2.2]octan]-2-amine], 100 to 1000 nM; that for `Clc1ccc(-c2cc(NC3=NC[C@@]4(CN5CCC4CC5)O3)ncn2)cc1` [Example 256, (R)—N-(6-(4-Chlorophenyl)pyrimidin-4-yl)-4H-1′-azaspiro[oxazole-5,3′-bicyclo[2.2.2]octan]-2-amine], below 100 nM.

Regarding `Clc1cccc(-c2cc(NC3=NC[C@@]4(CN5CCC4CC5)O3)ncn2)c1` [Example 257, (R)—N-(6-(3-Chlorophenyl)pyrimidin-4-yl)-4H-1′-azaspiro[oxazole-5,3′-bicyclo[2.2.2]octan]-2-amine], the EC50 was below 100 nM. `Cc1nnc(NC2=NC[C@@]3(CN4CCC3CC4)O2)o1` [Example 258, (R)—N-(5-Methyl-1,3,4-oxadiazol-2-yl)-4H-1′-azaspiro[oxazole-5,3′-bicyclo[2.2.2]octan]-2-amine] displayed an EC50 of 1000 to 100000 nM. Compound `Cc1nsc(NC2=NC[C@@]3(CN4CCC3CC4)O2)n1` [Example 259, (R)—N-(3-Methyl-1,2,4-thiadiazol-5-yl)-4H-1′-azaspiro[oxazole-5,3′-bicyclo[2.2.2]octan]-2-amine] registered an EC50 of 1000 to 100000 nM.

In turn, `Cc1noc(NC2=NC[C@@]3(CN4CCC3CC4)O2)n1` [Example 260, (R)—N-(3-Methyl-1,2,4-oxadiazol-5-yl)-4H-1′-azaspiro[oxazole-5,3′-bicyclo[2.2.2]octan]-2-amine] gave an EC50 of 100 to 1000 nM. The same measure, in the same setting: the result for `CSc1cc(NC2=NC[C@@]3(CN4CCC3CC4)O2)ncn1` [Example 261, (R)—N-(6-(Methylthio)pyrimidin-4-yl)-4H-1′-azaspiro[oxazole-5,3′-bicyclo[2.2.2]octan]-2-amine] reads below 100 nM; that for `c1ccn2c(NC3=NC[C@@]4(CN5CCC4CC5)O3)nnc2c1` [Example 262, (R)—N-([1,2,4]Triazol[4,3-a]pyridine-3-yl)-4H-1′-azaspiro[oxazole-5,3′-bicyclo[2.2.2]octan]-2-amine], 1000 to 100000 nM.

Values taken from patent publication US8309577B2, “Quinuclidine compounds as α-7 nicotinic acetylcholine receptor ligands” (Bristol-Myers Squibb Company, priority 2008, dated 2012).
